From patent US10472341B2, “Bicyclic tetrahydrothiazepine derivatives useful for the treatment of neoplastic and/or infectious diseases” (APEIRON BIOLOGICS AG, priority 2015, dated 2019)
pEC50: −log10 of the molar value. Counter-ions that a name gives are not always drawn.

Columns and labels:
[1] = test system: OT-I T cells; test: OT-I transfer to mice with B16-F10-OVA tumors: tumor antigen-specific T cell proliferation; assay type: in vivo, mouse; settings: B16-F10-OVA tumor bearing mice; for OT-I T cell proliferation: 10 mg/kg orally; for Proliferation [% proliferated OT-I T cells]: 10 mg/kg dosed orally
Method: • Single cell suspension of splenocytes was prepared from the spleen by rinsing cells through a sterile 70 μm filter with PBS • Cells were collected by centrifugation in an 15 ml tube, the cell pellet was resuspended in 1 ml of Erylyse buffer and incubated at room temperature for 5 minutes, tubes were filled up with PBS and cells were washed twice • Cells were counted and resuspended in the desired buffer volume for MACS-enrichment or flow cytometric analysis Isolation of CD4 T Cells from OT-II Transgenic Mice • Splenocytes were resuspended in MACS buffer ([…] MACS-buffer/10^7 cells) • CD4 T cells were isolated using the CD4 T cell isolation kit (Miltenyi) with LS-columns following manufacturer's recommendations CFSE-Labeling of T Cells • Cells were resuspended in PBS with 0.1% BSA at 1×10^7 cells/ml and CFSE-solution was added to final concentration of 2.5 μM CFSE • Incubated for 10 min at 37° C., swung each 2 min • Same volume of FCS added and incubated for 5 min at room temperature • Cells were washed twice with RMPI-10% FCS medium • Cells were counted and resuspended in PBS or medium at desired concentration OT-II Transfer • Day 0: OT-II cells were transferred in PBS (3*10^6. Cells in 100 μl PBS) by retro-orbital injection • Day 1: WT mice got OVA vaccinated (subcut. flank, 10 μg LPS, 2 μg OVA per animal) • 2 & 4 h later compounds were administrated; for oral dosing compound was used as suspension (0.5% methylcellulose in water), for i.v. dosing compound was solubilized in DMSO and diluted with PBS • Day 2: compounds were administrated twice in the morning (with 2 h time interval) • Day 3: Mice were sacrificed & splenocytes were isolated • T cell proliferation & phenotype was determined by flow cytometry • Flow cytometry-Staining (all Abs purchased from eBioscience and used as recommended by the manufacturer): B220-eF450, CD4-PE, CD25PerCPCy5.5, CD69-PC7, TCRVa2-APC, CD8-AF700, CD3-eF780; CFSE; 7-AAD • Acquisition on Beckman-Coulter Gallios, Analysis using Kaluza Software OT-I Transfer to Mice with B16-F10-OVA Tumors • Day 0: 100000 B16-F10-OVA tumor cells were inoculated subcutaneously at the flank of WT-mice • Day 7: OT-I cells were transferred in PBS (3*10^6. […]

[2] = test system: M21 melanoma cells; test: M21 viability (number of living cells) with or without CD8 cells; assay type: cell-based, human
Method: (§1) Isolated PBMCs, NK cells or CD8 positive cells were plated in Xvivo medium at 1.5*10^5 cells per in 96 well culture plates in the presence of 0.3*10^4 tumor cells where indicated. Cytokine secretion was determined by ELISA, immune cell activation (using Beckman-Coulter Abs CD25-PC5, CD69-PC7), cell viability and numbers by flow cytometry (Beckman-Coulter FC500 or Gallios) using 7-AAD exclusion as criterion for living cells. CD8-positive immune cells were isolated from PBMCs and were incubated with and without compound example 67, either alone or in co-culture with M21 melanoma cells.

[3] = test system: CD8-positive immune cells & M21 melanoma cells; test: CD8-positive immune cells alone or in co-culture with M21 melanoma cells: IFN-gamma, IL-2, granzyme; assay type: cell-based, human
Method: as §1

[4] = test system: CD4 T cells; test: CD69 expression on aCD3/aCD28 stimulated isolated human CD4 T cells (flow cytometry); assay type: cell-based; settings: 24 h after TCR stimulation, read-out: Activity Class CD69 (CD4)
Summary of the method: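 Isolated CD4 and CD8 T cells plated at 80000 cells per well in Xvivo medium and stimulated with anti-CD3/28 mAbs in presence of compound. CD69 expression measured by flow cytometry 24 h after TCR stimulation.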

[5] = 0.03 μM, CD8 only (no tumor cells)
[6] = 0.10 μM, CD8 only (no tumor cells)
[7] = 0.30 μM, CD8 only (no tumor cells)
[8] = 1 μM, CD8 only (no tumor cells)
[9] = 3 μM, CD8 only (no tumor cells)
[10] = 10 μM, CD8 only (no tumor cells)

In the case of `N[C@H]1CS(=O)(=O)c2cc(F)c(C(=O)NC3CC3(F)F)cc2N(Cc2ccc(Cl)cc2)C1=O` (stereo partly drawn) [Example 1, (3R)-3-amino-5-[(4-chlorophenyl)methyl]-N-(2,2-difluorocyclopropyl)-8-fluoro-1,1,4-trioxo-2,3,4,5-tetrahydro-1λ^6,5-benzothiazepine-7-carboxamide hydrochloride], the “OT-I T cell proliferation” value ([1]; spleen) was “significantly (p=0.006) increased”, the “OT-I T cell proliferation” value ([1]; tumor-draining lymphnodes) was “highly significantly (p=0.0002) enhanced” and the “Proliferation [% proliferated OT-I T cells]” value ([1]; Lymph node) was 12.28%. For the same compound, the “Proliferation [% proliferated OT-I T cells]” value ([1]; Spleen) was 8.62%.
In the case of `CCCCNC(=O)c1ccc2c(c1)N(Cc1ccc(OC(F)(F)F)cc1)C(=O)[C@@H](N)CS2(=O)=O.Cl` [Example 67, (3R)-3-amino-N-butyl-1,1,4-trioxo-5-{[4-(trifluoromethoxy)phenyl]methyl}-2,3,4,5-tetrahydro-1λ^6,5-benzothiazepine-7-carboxamide hydrochloride], the “M21 Viability [Number of Living Cells] average” value (shortened to “M21 Viability”) ([2]; 0.03 μM, CD8 cells & M21) was 13077.00 Number of Living Cells, the “M21 Viability” value ([2]; 0.1 μM, CD8 cells & M21) was 11586.67 Number of Living Cells and the “M21 Viability” value ([2]; 0.3 μM, CD8 cells & M21) was 9525.67 Number of Living Cells. For the same compound, the “M21 Viability” value ([2]; 1 μM, CD8 cells & M21) was 3916.67 Number of Living Cells, the “M21 Viability” value ([2]; 3 μM, CD8 cells & M21) was 3604.00 Number of Living Cells and the “M21 Viability” value ([2]; 10 μM, CD8 cells & M21) was 3448.67 Number of Living Cells. For the same compound, the “M21 Viability” value ([2]; 10 μM, M21 only (no CD8 cells)) was 18139 Number of Living Cells, the viable tumor cells ([2]; immune cell cocultures with M21 tumor cells) was “strong reduction in viable tumor cells” and the “Granzyme [ng/ml] avg” value ([3]; 0.03 μM, CD8 cells & M21) was 0.10 ng/mL. The “IFN-gamma [ng/ml] avg” value ([3]; 0.03 μM, CD8 cells & M21) was 0.06 ng/mL, the “IL-2 [ng/ml] avg” value ([3]; 0.03 μM, CD8 cells & M21) was 1.32 ng/mL and the “Granzyme [ng/ml] avg” value [3, 5] was 0.01 ng/mL. The “IFN-gamma [ng/ml] avg” value [3, 5] was “Below”, the “IL-2 [ng/ml] avg” value [3, 5] was “Below” and the “Granzyme [ng/ml] avg” value ([3]; 0.10 μM, CD8 cells & M21) was 0.12 ng/mL. For the same compound, the “IFN-gamma [ng/ml] avg” value ([3]; 0.10 μM, CD8 cells & M21) was 0.15 ng/mL, the “IL-2 [ng/ml] avg” value ([3]; 0.10 μM, CD8 cells & M21) was 2.13 ng/mL and the “Granzyme [ng/ml] avg” value [3, 6] was 0.01 ng/mL. The “IFN-gamma [ng/ml] avg” value [3, 6] was “Below”, the “IL-2 [ng/ml] avg” value [3, 6] was “Below” and the “Granzyme [ng/ml] avg” value ([3]; 0.30 μM, CD8 cells & M21) was 0.18 ng/mL. The “IFN-gamma [ng/ml] avg” value ([3]; 0.30 μM, CD8 cells & M21) was 0.20 ng/mL, the “IL-2 [ng/ml] avg” value ([3]; 0.30 μM, CD8 cells & M21) was 2.75 ng/mL and the “Granzyme [ng/ml] avg” value [3, 7] was 0.01 ng/mL. The “IFN-gamma [ng/ml] avg” value [3, 7] was “Below”, the “IL-2 [ng/ml] avg” value [3, 7] was “Below” and the “Granzyme [ng/ml] avg” value ([3]; 1 μM, CD8 cells & M21) was 0.34 ng/mL. The “IFN-gamma [ng/ml] avg” value ([3]; 1 μM, CD8 cells & M21) was 0.40 ng/mL, the “IL-2 [ng/ml] avg” value ([3]; 1 μM, CD8 cells & M21) was 3.38 ng/mL and the “Granzyme [ng/ml] avg” value [3, 8] was 0.02 ng/mL. The “IFN-gamma [ng/ml] avg” value [3, 8] was “Below”, the “IL-2 [ng/ml] avg” value [3, 8] was “Below” and the “Granzyme [ng/ml] avg” value ([3]; 3 μM, CD8 cells & M21) was 0.43 ng/mL. For the same compound, the “IFN-gamma [ng/ml] avg” value ([3]; 3 μM, CD8 cells & M21) was 0.54 ng/mL, the “IL-2 [ng/ml] avg” value ([3]; 3 μM, CD8 cells & M21) was 3.44 ng/mL and the “Granzyme [ng/ml] avg” value [3, 9] was 0.01 ng/mL. For the same compound, the “IFN-gamma [ng/ml] avg” value [3, 9] was “Below”, the “IL-2 [ng/ml] avg” value [3, 9] was “Below” and the “Granzyme [ng/ml] avg” value ([3]; 10 μM, CD8 cells & M21) was 0.37 ng/mL. The “IFN-gamma [ng/ml] avg” value ([3]; 10 μM, CD8 cells & M21) was 0.68 ng/mL, the “IL-2 [ng/ml] avg” value ([3]; 10 μM, CD8 cells & M21) was 3.26 ng/mL and the “Granzyme [ng/ml] avg” value [3, 10] was 0.02 ng/mL. The “IFN-gamma [ng/ml] avg” value [3, 10] was “Below”, the “IL-2 [ng/ml] avg” value [3, 10] was “Below” and the “tumor-cell contact mediated release of granzyme” value ([3]; CD8-positive immune cells in co-culture with M21) was “enhanced”. For the same compound, the “production of IL-2 and IFN-gamma” value ([3]; CD8-positive immune cells in co-culture with M21 melanoma cells) was “enhanced production of both cytokines specifically upon tumor cell contact” and the “enhancement of IL-2 and IFN-gamma production” value ([3]; CD8-positive immune cells in the absence of tumor cells) was “such effect was not detected in the absence of tumor cells”.
Compound `Cl.N[C@H]1CS(=O)(=O)c2cc(F)c(C(=O)NCCCC(F)(F)F)cc2N(Cc2ccc(Cl)cc2)C1=O` [Example 70, (3R)-3-amino-5-[(4-chlorophenyl)methyl]-8-fluoro-1,1,4-trioxo-N-(4,4,4-trifluoro-butyl)-2,3,4,5-tetrahydro-1λ^6,5-benzothiazepine-7-carboxamide hydrochloride] has a pEC50 [4] of over 5.80.
